From patent US20220259193A1, “KCNT1 INHIBITORS AND METHODS OF USE” (Praxis Precision Medicines, Inc., priority 2019, published 2022)

molecular target: T1, KCNT1 (KNa1.1, Slack) (Homo sapiens, UniProt Q5JUK3); assay: KCNT1 patch clamp assay (SyncroPatch 384PE automated patch clamp); format: cell-based; settings: tetracycline inducible HEK-TREX cell line; perforated patch; step from −80 mV to 0 mV; room temperature; read-out: KCNT1-WT IC50
T1 construct: expressed in transfected cells; host or cells: HEK-TREX (tetracycline-inducible HEK cell line)
T1 sequence (Q5JUK3 1-1230): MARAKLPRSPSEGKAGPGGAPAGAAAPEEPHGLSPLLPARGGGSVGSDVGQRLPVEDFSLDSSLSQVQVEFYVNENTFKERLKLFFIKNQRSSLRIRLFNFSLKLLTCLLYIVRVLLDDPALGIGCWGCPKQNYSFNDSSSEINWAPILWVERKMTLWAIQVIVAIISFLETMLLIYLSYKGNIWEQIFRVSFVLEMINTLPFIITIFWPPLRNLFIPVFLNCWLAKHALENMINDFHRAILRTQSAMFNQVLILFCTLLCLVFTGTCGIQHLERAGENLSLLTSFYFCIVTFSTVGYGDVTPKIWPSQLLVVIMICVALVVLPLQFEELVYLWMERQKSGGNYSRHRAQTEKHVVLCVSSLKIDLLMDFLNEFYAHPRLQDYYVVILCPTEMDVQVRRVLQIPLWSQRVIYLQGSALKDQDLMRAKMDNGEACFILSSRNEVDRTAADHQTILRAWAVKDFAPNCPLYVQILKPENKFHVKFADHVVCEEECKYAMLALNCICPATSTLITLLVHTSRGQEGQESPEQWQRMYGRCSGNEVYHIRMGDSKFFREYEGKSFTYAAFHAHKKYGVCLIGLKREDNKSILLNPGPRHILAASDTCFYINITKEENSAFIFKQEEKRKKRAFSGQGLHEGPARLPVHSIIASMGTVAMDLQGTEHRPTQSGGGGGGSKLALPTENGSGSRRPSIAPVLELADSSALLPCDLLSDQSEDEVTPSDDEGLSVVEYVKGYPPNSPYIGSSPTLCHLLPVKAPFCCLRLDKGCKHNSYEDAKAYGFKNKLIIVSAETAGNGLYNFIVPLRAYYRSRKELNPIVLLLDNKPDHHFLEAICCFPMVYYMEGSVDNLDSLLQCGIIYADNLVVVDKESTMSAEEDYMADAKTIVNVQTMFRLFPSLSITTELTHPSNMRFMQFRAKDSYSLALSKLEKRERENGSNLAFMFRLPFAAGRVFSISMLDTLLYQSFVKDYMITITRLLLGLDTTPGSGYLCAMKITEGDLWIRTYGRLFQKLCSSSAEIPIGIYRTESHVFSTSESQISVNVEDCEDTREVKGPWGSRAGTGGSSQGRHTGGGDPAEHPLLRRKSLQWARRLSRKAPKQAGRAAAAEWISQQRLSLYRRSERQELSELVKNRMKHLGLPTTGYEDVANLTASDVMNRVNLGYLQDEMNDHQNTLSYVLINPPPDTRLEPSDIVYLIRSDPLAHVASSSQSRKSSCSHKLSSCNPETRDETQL
Procedure: KCNT1—Patch Clamp Assay Inhibition of KCNT1 (KNa1.1, Slack) was evaluated using a tetracycline inducible cell line (HEK-TREX). Currents were recorded using the SyncroPatch 384PE automated, patch clamp system. Pulse generation and data collection were performed with PatchController384 V1.3.0 and DataController384 V1.2.1 (Nanion Technologies). The access resistance and apparent membrane capacitance were estimated using built-in protocols. Current were recorded in perforated patch mode (10 μM escin) from a population of cells. […] The cells were allowed to recover in the cell hotel prior to experimentation. Currents were recorded at room temperature. […] The extracellular solution was used as the wash, reference and compound delivery solution. […] Escin is made at a 5 mM stock in water, aliquoted, and stored at −20° C. The compound plate was created at 2× concentrated in the extracellular solution. The compound was diluted to 1:2 when added to the recording well. The amount of DMSO in the extracellular solution was held constant at the level used for the highest tested concentration. A holding potential of −80 mV with a 100 ms step to 0 mV was used. […] The average mean current from 3 sweeps was calculated and the % inhibition of each compound was calculated. The % Inhibition as a function of the compound concentration was fit with a Hill equation to derive IC50, slope, min and max parameters.

`Cn1nc(C(F)(F)F)cc1C(=O)NC(CC(N)=O)c1nc(-c2cccc(F)c2)no1` (single isomer, unassigned) [Compound 128, N-[3-amino-1-[3-(3-fluorophenyl)-1,2,4-oxadiazol-5-yl]-3-oxo-propyl]-2-methyl-5-(trifluoromethyl)pyrazole-3-carboxamide] and `CNC(=O)C[C@H](NC(=O)c1cc(C(F)(F)F)nn1C)c1nc(-c2cccc(F)c2)no1` (single isomer, unassigned) [Compound 115] cannot be ordered by IC50: ≥ 20000 nM for the first, ≥ 20000 nM for the second.

`CC[C@H](NC(=O)c1cc(-c2ccccc2)nn1C)c1nc(-c2ccnc(C)c2)no1` [Compound 226, (S)-1-methyl-N-(1-(3-(2-methylpyridin-4-yl)-1,2,4-oxadiazol-5-yl)propyl)-3-phenyl-1H-pyrazole-5-carboxamide] and `CC[C@@H](NC(=O)c1cc(C2CC2)nn1C)c1nc(-c2cccc(F)c2)no1` [Compound 61] cannot be ordered by IC50: ≤ 1000 nM for the first, ≤ 1000 nM for the second.

`C[C@H](NC(=O)c1cn(C)nc1C1CCOCC1)c1nc(-c2cccc(F)c2)no1` [Compound 166] and `COCc1nn(C)cc1C(=O)N[C@@H](C)c1nc(-c2cccc(F)c2)no1` [Compound 156] cannot be ordered by IC50: 1000 to 20000 nM for the first, ≥ 20000 nM for the second.

`Cn1nc(C(F)(F)F)cc1C(=O)NC1(c2nc(-c3cccc(F)c3)no2)CCOCC1` [Compound 118] and `Cn1nc(C(F)(F)F)cc1C(=O)NC(CN)c1nc(-c2cccc(F)c2)no1` (centres unmarked) [Compound 167, N-[2-amino-1-[3-(3-fluorophenyl)-1,2,4-oxadiazol-5-yl]ethyl]-2-methyl-5-(trifluoromethyl)pyrazole-3-carboxamide] fall in the same range of IC50: 1000 to 20000 nM for the first, 1000 to 20000 nM for the second.

`CC(C)Oc1cc(-c2noc([C@H](C)NC(=O)c3cc(C(F)(F)F)nn3C)n2)ccn1` [Compound 201, (S)—N-(1-(3-(2-isopropoxypyridin-4-yl)-1,2,4-oxadiazol-5-yl)ethyl)-1-methyl-3-(trifluoromethyl)-1H-pyrazole-5-carboxamide] and `Cc1cc(C(=O)N[C@@H](C)c2nc(-c3ccnc(C(F)(F)F)c3)no2)n(C)n1` [Compound 252] cannot be ordered by IC50: ≤ 1000 nM for the first, 1000 to 20000 nM for the second.

`C[C@H](NC(=O)c1cc(C(F)F)nn1C)c1nc(-c2ccnc(C(F)(F)F)c2)no1` [Compound 238] and `C[C@H](NC(=O)c1cc(C(F)(F)F)nn1C)c1nc(-c2ccnc(N3CC(F)(F)C3)c2)no1` [Compound 222, (S)—N-(1-(3-(2-(3,3-difluoroazetidin-1-yl)pyridin-4-yl)-1,2,4-oxadiazol-5-yl)ethyl)-1-methyl-3-(trifluoromethyl)-1H-pyrazole-5-carboxamide] cannot be ordered by IC50: ≤ 1000 nM for the first, ≤ 1000 nM for the second.

`C[C@H](NC(=O)c1cc(-c2ccc(F)cc2)nn1C)c1nc(-c2ccnc(C3CC3)c2)no1` [Compound 228, (S)—N-(1-(3-(2-cyclopropylpyridin-4-yl)-1,2,4-oxadiazol-5-yl)ethyl)-3-(4-fluorophenyl)-1-methyl-1H-pyrazole-5-carboxamide] and `CC(NC(=O)c1cc(C2CC2)nn1C)c1nc(-c2ccc(Cl)cc2)no1` (centres unmarked) [Compound 9] cannot be ordered by IC50: ≤ 1000 nM for the first, ≤ 1000 nM for the second.

`CC(NC(=O)c1cc(C(F)(F)F)nn1C)c1nc(-c2cccc(C(N)=O)c2)no1` (centres unmarked) [Compound 193, N-(1-(3-(3-carbamoylphenyl)-1,2,4-oxadiazol-5-yl)ethyl)-1-methyl-3-(trifluoromethyl)-1H-pyrazole-5-carboxamide] and `CC(NC(=O)c1cc(C(F)(F)F)nn1C)c1nc(-c2cccc(CO)c2)no1` (centres unmarked) [Compound 176, N-(1-(3-(3-(hydroxymethyl)phenyl)-1,2,4-oxadiazol-5-yl)ethyl)-1-methyl-3-(trifluoromethyl)-1H-pyrazole-5-carboxamide] cannot be ordered by IC50: ≥ 20000 nM for the first, 1000 to 20000 nM for the second.

`C[C@H](NC(=O)OC(C)(C)C)c1nc(-c2ccnc(OCC(F)F)c2)no1` [Compound 294, tert-butyl (S)-(1-(3-(2-(2,2-difluoroethoxy)pyridin-4-yl)-1,2,4-oxadiazol-5-yl)ethyl)carbamate] and `CC[C@H](NC(=O)OC(C)(C)C)c1nc(-c2ccnc(C3CC3)c2)no1` [Compound 247, tert-butyl (S)-(1-(3-(2-cyclopropylpyridin-4-yl)-1,2,4-oxadiazol-5-yl)propyl)carbamate] cannot be ordered by IC50: 1000 to 20000 nM for the first, ≤ 1000 nM for the second.

`C[C@H](NC(=O)c1cc(C(F)(F)F)nn1C(F)F)c1nc(-c2cccc(F)c2)no1` [Compound 127] and `CC[C@H](NC(=O)c1cc(C(F)(F)F)nn1CC(F)F)c1nc(-c2cccc(F)c2)no1` [Compound 111] cannot be ordered by IC50: ≤ 1000 nM for the first, ≤ 1000 nM for the second.

`Cn1nc(C(F)(F)F)cc1C(=O)NC(CC#N)c1nc(-c2cccc(F)c2)no1` (centres unmarked) [Compound 140] and `COCCC(NC(=O)c1cc(C(F)(F)F)nn1C)c1nc(-c2cccc(F)c2)no1` (centres unmarked) [Compound 170] cannot be ordered by IC50: 1000 to 20000 nM for the first, ≤ 1000 nM for the second.

`C[C@H](NC(=O)c1cc(C(F)(F)F)nn1C)c1nc(-c2nccc(C(F)(F)F)n2)no1` [Compound 237, (S)-1-methyl-3-(trifluoromethyl)-N-(1-(3-(4-(trifluoromethyl)pyrimidin-2-yl)-1,2,4-oxadiazol-5-yl)ethyl)-1H-pyrazole-5-carboxamide] and `COC1(c2cc(-c3noc([C@H](C)NC(=O)c4cc(C(F)(F)F)nn4C)n3)ccn2)CC1` [Compound 263, (S)—N-(1-(3-(2-(1-methoxycyclopropyl)pyridin-4-yl)-1,2,4-oxadiazol-5-yl)ethyl)-1-methyl-3-(trifluoromethyl)-1H-pyrazole-5-carboxamide] cannot be ordered by IC50: ≥ 20000 nM for the first, 1000 to 20000 nM for the second.

`C[C@H](NC(=O)c1ccnn1Cc1ccccc1)c1nc(-c2ccnc(C3CC3)c2)no1` [Compound 280, (S)-1-benzyl-N-(1-(3-(2-cyclopropylpyridin-4-yl)-1,2,4-oxadiazol-5-yl)ethyl)-1H-pyrazole-5-carboxamide] and `CC(C)OC(=O)N[C@@H](C)c1nc(-c2ccnc(C3CC3)c2)no1` [Compound 277] cannot be ordered by IC50: ≤ 1000 nM for the first, 1000 to 20000 nM for the second.

`CO[C@H](C)[C@H](NC(=O)c1cc(C(F)(F)F)nn1C)c1nc(-c2cccc(F)c2)no1` [Compound 131] and `CO[C@H](C)[C@@H](NC(=O)c1cc(C(F)(F)F)nn1C)c1nc(-c2cccc(F)c2)no1` [Compound 139] cannot be ordered by IC50: 1000 to 20000 nM for the first, ≤ 1000 nM for the second.

`Cc1cccc(-c2noc(C(C)NC(=O)c3cc(C)nn3C(F)F)n2)c1` (centres unmarked) [Compound 33] and `Cc1cccc(-c2noc(C(C)NC(=O)c3cc(C(C)C)nn3C)n2)c1` (centres unmarked) [Compound 10] cannot be ordered by IC50: ≤ 1000 nM for the first, ≤ 1000 nM for the second.

`Cc1nn(C2CC2)cc1C(=O)N[C@@H](C)c1nc(-c2cccc(F)c2)no1` [Compound 161] and `CC(C)[C@H](NC(=O)c1cc(C2CC2)nn1C)c1nc(-c2cccc(F)c2)no1` [Compound 63] cannot be ordered by IC50: 1000 to 20000 nM for the first, ≤ 1000 nM for the second.

`Cc1nn(C(C)C)cc1C(=O)N[C@@H](C)c1nc(-c2ccc(Cl)c(F)c2)no1` [Compound 86] and `Cn1nc(C2CC2)cc1C(=O)N[C@@H](c1nc(-c2cccc(F)c2)no1)C1CC1` (single isomer, unassigned) [Compound 108] cannot be ordered by IC50: ≤ 1000 nM for the first, ≤ 1000 nM for the second.

With `C[C@H](NC(=O)c1cc(C(F)(F)F)nn1CCN1CCCC1)c1nc(-c2ccnc(C(F)(F)F)c2)no1` [Compound 257, (S)-1-(2-(pyrrolidin-1-yl)ethyl)-3-(trifluoromethyl)-N-(1-(3-(2-(trifluoromethyl)pyridin-4-yl)-1,2,4-oxadiazol-5-yl)ethyl)-1H-pyrazole-5-carboxamide] the IC50 was ≤ 1000 nM.
